From ChEMBL document CHEMBL1949517, “Stylissamide X, a new proline-rich cyclic octapeptide as an inhibitor of cell migration, from an Indonesian marine sponge of Stylissa sp” (Bioorg Med Chem Lett, 2012) come the findings set out here.

Calls of active or inactive are those of the source. The rule behind the calls is not given here. Where a SMILES comes first, the peptide text is derived from it.

Data set [1] has as its system HeLa. Nature of the data set: Anti-cell migration activity at EGF-induced human HeLa cells at 0.1 to 10 uM after 24 hrs by Giemsa-staining based chemotaxicell chamber assay. It is filed as functional.
Data set [2] concerns HeLa. Nature of the data set: Anti-cell migration activity at human HeLa cells at 0.1 to 10 uM after 24 hrs by wound healing assay. It is filed as functional, cell-based.
Data set [3] in a line: Cytotoxicity against human HeLa cells assessed as cell viability at 10 uM after 24 hrs by MTT assay. It is filed as cell-based. Conditions: read-out: Activity.

`CC[C@H](C)[C@@H]1NC(=O)[C@@H]2CCCN2C(=O)[C@H]([C@@H](C)O)NC(=O)[C@H](CC(C)C)NC(=O)[C@@H]2CCCN2C(=O)[C@H](Cc2ccccc2)NC(=O)[C@H](Cc2c[nH]c3ccccc23)NC(=O)[C@@H]2CCCN2C1=O` [STYLISSAMIDE X] (cyclo(FPLTPIPW)): the result in the data set on HeLa [1] and in the data set on HeLa [2] was Active. Also, the viability at 24 h, 10 µM in data set [3] is more than 75%.
